{"source": "patent US20150071974A1", "about": "“COMPOUNDS WHICH INHIBIT NEURONAL EXOCYTOSIS” (LUBRIZOL ADVANCED MATERIALS, INC., priority 2012, published 2015)", "system": "human neuroblastoma cell line", "experiment": "Release of noradrenaline induced by TPA/Ionomycin in a neuroblastoma cell line, quantified by ELISA", "format": "cell-based", "settings": "TPA/ION control = 100.00", "method": "Quantification of the Release of Noradrenaline Induced by TPA/Ionomycin in a Neuroblastoma Cell Line by ELISA\nThe induction of the release of noradrenaline with TPA (12-O-tetradecanoylphorbol-13-acetate)/lonomycin enables direct measurement of neuronal exocytosis. For the study of the inhibitory effect of the compounds of the invention on the release of noradrenaline, cells of a human neuroblastoma cell line were pre-incubated (1×10^6 cells/well) for 60 minutes with the compound of the invention (1 μM, 10 μM, 100 μM, 500 μM or 1 mM compounds), and afterward the release of noradrenaline was induced. The release of the noradrenaline neurotransmitter was induced by an 8 minute pre-treatment with a solution of 12-O-tetradecanoylphorbol-13-acetate (TPA) 100 nM, which mobilized the intracellular vesicles which contained the neurotransmitter; followed by a 5 minute incubation with TPA/Ionomycin (100 nM/10 μM), which induced the release of the neurotransmitter contained in these vesicles. […] For this, absorbance at 405 nm was measured in Thermo Scientific Multiskan Ascent equipment.\nThe blocking of the SNARE complex by the compounds of the invention lead to an inhibition of neuronal exocytosis and therefore, a decrease in the levels of released noradrenaline (Table 6)."}
{"substance": "Ac-HQEHRKMD-NH2 [Ac-SEQ ID NO: 5-NH2]", "values": [{"measurement": "% RELEASED NORADRENALINE Average", "setting": "dose 10 μM", "value": 85.68, "unit": "%"}, {"measurement": "% RELEASED NORADRENALINE Average", "setting": "dose 100 μM", "value": 81.50, "unit": "%"}, {"measurement": "% RELEASED NORADRENALINE Average", "setting": "dose 1000 μM", "value": 51.45, "unit": "%"}]}
{"substance": "Ac-QNLEHIMDQ-NH2 [Ac-SEQ ID NO: 62-NH2]", "values": [{"measurement": "% RELEASED NORADRENALINE Average", "setting": "dose 10 μM", "value": 77.76, "unit": "%"}, {"measurement": "% RELEASED NORADRENALINE Average", "setting": "dose 100 μM", "value": 82.72, "unit": "%"}, {"measurement": "% RELEASED NORADRENALINE Average", "setting": "dose 1000 μM", "value": 63.99, "unit": "%"}]}
{"substance": "Ac-QQLENIMDN-NH2 [Ac-SEQ ID NO: 51-NH2]", "values": [{"measurement": "% RELEASED NORADRENALINE Average", "setting": "dose 10 μM", "value": 81.13, "unit": "%"}, {"measurement": "% RELEASED NORADRENALINE Average", "setting": "dose 100 μM", "value": 101.40, "unit": "%"}, {"measurement": "% RELEASED NORADRENALINE Average", "setting": "dose 1000 μM", "value": 35.37, "unit": "%"}]}
